Values joined by “and” are separate entries in the source; they are usually repeats but may differ in a detail not shown here. Identical values can stand only once. Counter-ions that a name gives are not always drawn. Like-named read-outs stand apart in the source and are kept apart here.
Experiments:
recombinant human AChE [1] = target: T1, recombinant human AChE (Homo sapiens, UniProt P22303); test: biochemical
recombinant human AChE [2] = target: T1, recombinant human AChE; test: biochemical; remark: listed apart in the source
AChE in SH-SY5Y cells = AChE in SH-SY5Y cells (Homo sapiens, UniProt P22303); test: cell-based
Sequence of AChE in SH-SY5Y cells (P22303 32-614): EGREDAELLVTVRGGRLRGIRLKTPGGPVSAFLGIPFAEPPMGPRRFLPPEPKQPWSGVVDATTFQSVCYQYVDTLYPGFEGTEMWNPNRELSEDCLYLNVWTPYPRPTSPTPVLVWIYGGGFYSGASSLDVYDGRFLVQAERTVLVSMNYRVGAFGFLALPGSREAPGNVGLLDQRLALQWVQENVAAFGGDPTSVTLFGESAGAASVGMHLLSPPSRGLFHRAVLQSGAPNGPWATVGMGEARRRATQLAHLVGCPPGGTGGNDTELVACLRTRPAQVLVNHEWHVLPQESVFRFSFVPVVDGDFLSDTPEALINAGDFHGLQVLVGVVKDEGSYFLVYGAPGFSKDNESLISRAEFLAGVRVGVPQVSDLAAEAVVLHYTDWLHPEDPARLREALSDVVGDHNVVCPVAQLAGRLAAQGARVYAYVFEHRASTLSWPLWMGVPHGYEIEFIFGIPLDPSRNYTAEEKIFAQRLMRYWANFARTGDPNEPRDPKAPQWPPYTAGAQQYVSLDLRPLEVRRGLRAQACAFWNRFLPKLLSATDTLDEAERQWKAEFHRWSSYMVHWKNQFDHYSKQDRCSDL

[3] = target: AChE in SH-SY5Y spheroids (Homo sapiens, UniProt P22303); test: cell-based
Sequence of AChE in SH-SY5Y spheroids (P22303 32-614): as above

[4] = target: AChE in neural stem cells (Homo sapiens, UniProt P22303); test: cell-based
Sequence of AChE in neural stem cells (P22303 32-614): as above

[5] = target: AChE in neural stem cell spheroids (Homo sapiens, UniProt P22303); test: cell-based; settings: for IC50: potency (IC50)
Sequence of AChE in neural stem cell spheroids (P22303 32-614): as above

recombinant human AChE [6] = target: T1, recombinant human AChE; test: biochemical; assay type: biochemical; settings: for AC50: AC50 (uM)
recombinant human AChE [7] = target: T1, recombinant human AChE
recombinant human AChE [8] = target: T1, recombinant human AChE; test: biochemical; remark: listed apart in the source
[9] = potency (IC50), SH-SY5Y cells monolayer
[10] = potency (IC50), SH-SY5Y spheroids (24 h)
[11] = potency (IC50), SH-SY5Y spheroids (48 h)
[12] = Neural stem cell spheroid (24 h)
[13] = Neural stem cell spheroid (48 h)
[14] = potency (IC50), Enzyme with microsomes
Wherever IR or R is given: key: Reversible (R); Irreversible (IR); ND, not detected in enzyme-based AChE inhibition assay from current study.

T1 sequence (P22303 32-614): as above

SMILES	CC-v2 (curve classes) (recombinant human AChE [1])	Efficacy (recombinant human AChE [1])	IC50 (recombinant human AChE [1]; IC50 (uM))	IC50 (recombinant human AChE [1]; potency (IC50), Enzyme)	IC50 (recombinant human AChE [2])	CC-v2 (curve classes) (AChE in SH-SY5Y cells)	IC50 (AChE in SH-SY5Y cells; IC50 (uM))	IC50 (AChE in SH-SY5Y cells; [9])	IC50 [3, 10]	IC50 [3, 11]	IC50 [4]	IC50 [5, 12]	IC50 [5, 13]	AC50 (recombinant human AChE [6]; activity_5)	AC50 (recombinant human AChE [6]; activity_10)	AC50 (recombinant human AChE [6]; activity_60)	CC-v2 (curve classes) (recombinant human AChE [7])	Efficacy (recombinant human AChE [7])	IC50 (recombinant human AChE [8]; [14])	IR or R (recombinant human AChE [6])	other results
CCCSP(=O)(OCC)Oc1ccc(Br)cc1Cl (centres unmarked) [Profenofos]	-1.1	-92.505	3.87 µM	3.85 µM	5.25 ± 0.34 µM	-1.1	6.88 µM and 5.46 µM and 7.72 µM	3.71 ± 0.24 µM	2.57 ± 2.21 µM	2.89 ± 0.65 µM	1.05 ± 0.14 µM	0.2 ± 0.09 µM	0.78 µM	10.9 µM and 17.2 µM and 15.3 µM	12.2 µM and 15.3 µM	6.85 µM and 7.69 µM and 13.7 µM	-1.1	-79.632	3.43 µM		IC50 (recombinant human AChE [8]; IC50 (uM)): 2.74 µM
O=C(c1ccc(OCCN2CCCCC2)cc1)c1c(-c2ccc(O)cc2)sc2cc(O)ccc12 [Raloxifene hydrochloride, reference compound]	-1.1			2.14 ± 0.13 µM	3.43 ± 0.58 µM	-1.1 and -2.1	27.5 µM and 25.2 µM and 31.7 µM	4.29 ± 0.59 µM	1.03 ± 0.78 µM	4.19 ± 0.94 µM	14.1 ± 1.61 µM	6.29 ± 0.72 µM	9.85 µM	1.57 µM and 2.22 µM and 1.11 µM	1.57 µM and 1.4 µM and 3.14 µM	1.25 µM and 1.11 µM and 2.22 µM	-1.1		3.42 ± 0.58 µM	R	
CC(=O)Oc1cc(C(C)C)c(OCCN(C)C)cc1C [Moxisylyte hydrochloride, reference compound]	-2.2	-54.154		21.9 µM	20.1 ± 1.36 µM	-2.1 and -1.1	13.8 µM	20.1 µM	14.3 µM	20.9 µM	19.3 µM		24.3 µM	19.3 µM and 17.2 µM and 21.7 µM	19.3 µM and 24.3 µM and 21.7 µM	17.2 µM and 24.3 µM and 21.7 µM	-2.4	-32.666	19.3 µM	R	potency (IC50), Neural stem cell spheroid (24 h) [5]: Inactive
CS/C(C)=N\OC(=O)N(C)SN(C)C(=O)O/N=C(\C)SC [Thiodicarb]	-1.1	-104.676		7.03 µM	3.97 ± 0.46 µM	-1.1	1.42 µM and 1.26 µM and 1.12 µM	2.81 ± 0.32 µM	1.58 ± 0.57 µM	2.62 ± 0.47 µM	5.43 ± 0.92 µM	7.63 ± 1.05 µM	7.8 ± 2.18 µM				-2.1	-115.189	5.48 ± 1.36 µM		AC50 (recombinant human AChE [6]): 4.44 µM and 3.95 µM (2×) and 3.14 µM and 6.27 µM and 5.59 µM and 1.57 µM and 1.98 µM
CCOP(=O)(OCC)Oc1cc(C)nc(C(C)C)n1 [Diazoxon]	-1.1	-95.835		1.12 ± 0.12 µM	2.25 ± 0.26 µM	-1.1	0.143 µM and 0.179 µM and 0.201 µM	0.26 ± 0.03 µM	2.3 ± 0.96 µM		0.24 ± 0.04 µM	0.22 µM	0.39 ± 0.07 µM				-1.1	-95.678	3.69 ± 0.24 µM		IC50 ([3]; read-out: potency (IC50), SH-SY5Y spheroids (48 h)): 0.5 µM; AC50 (recombinant human AChE [6]): 44.6 µM
CCOP(=S)(OCC)OP(=S)(OCC)OCC [Sulfotepp]	-2.1			9.97 ± 1.14 µM	44.4 µM	-1.1	5.02 µM and 8.18 µM and 2.52 µM and 5.16 µM and 2.24 µM and 2.59 µM	0.96 ± 0.13 µM	15.3 ± 7.82 µM	4.12 ± 0.28 µM	1.25 ± 0.14 µM	0.06 ± 0.01 µM	0.1 ± 0.02 µM			55.9 µM and 70.3 µM	-1.1		7.89 µM		
CCOP(=S)(OCC)O/N=C(\C#N)c1ccccc1 [Phoxim]	-2.2 and -2.1			23.4 µM	22 ± 4.1 µM	-2.1	17.4 µM and 63.3 µM and 30.9 µM and 71 µM and 34.7 µM	20.9 µM	13.3 µM	12.9 µM	3.18 µM	0.33 µM	0.4 µM	27.3 µM and 24.3 µM	30.6 µM and 24.3 µM	21.7 µM and 19.3 µM and 24.3 µM	-1.1		0.67 µM		
CN1CCc2cc(Cl)c(O)cc2[C@H]2c3ccccc3CC[C@@H]21 [Ecopipam, reference compound]	-2.2	-53.005	34.7 µM	20.1 µM	32.7 ± 9.64 µM	-2.2	27.5 µM and 34.7 µM	15.8 µM		17.7 µM	17.5 µM		3.16 µM				4	0	27.3 µM	R	AC50 (recombinant human AChE [6]): 21.7 µM (2×) and 9.68 µM and 19.3 µM and 15.3 µM (2×) and 17.2 µM
CCOC(=O)C(SP(=S)(OC)OC)c1ccccc1 (centres unmarked) [Phenthoate]	-2.2	-77.281	71 µM	25.1 ± 2.88 µM	38.1 ± 2.48 µM	-1.1 and -2.1	31.7 µM and 22.4 µM and 25.2 µM	12.6 ± 1.44 µM	1.01 ± 1.29 µM	20.4 ± 5.69 µM	33.2 ± 15.3 µM	26.5 ± 11.5 µM	8.66 µM	44.4 µM	49.8 µM and 39.5 µM	39.5 µM and 28 µM and 31.4 µM	-3	-48.701	29.1 ± 1.97 µM		IC50 (recombinant human AChE [8]; IC50 (uM)): 79.6 µM
CNC(=O)Oc1cccc2c1OC(C)(C)O2 [Bendiocarb]	-1.1			0.51 ± 0.03 µM	0.92 ± 0.06 µM	-1.1		1.07 ± 0.06 µM	44.7 ± 19.4 µM	54.1 ± 7.44 µM	46.2 ± 3.12 µM	45.2 ± 10.3 µM	47.1 µM				-1.1		0.88 µM	R	AC50 (recombinant human AChE [6]): 70.3 µM (2×) and 78.9 µM and 88.5 µM (2×) and 55.9 µM and 62.7 µM
CCOP(=S)(OCC)Oc1ccc([N+](=O)[O-])cc1 [Parathion]				22.8 µM	18 ± 2.29 µM	-2.1	13.8 µM and 64.1 µM and 71.9 µM	11.3 µM	18.1 µM	10.6 µM	6.88 µM	3.9 µM	9.13 µM	24.3 µM and 30.6 µM	27.3 µM and 24.3 µM	21.7 µM and 19.3 µM	-1.1		1.27 µM		
CNC(=C[N+](=O)[O-])NCCSCc1csc(CN(C)C)n1 [Nizatidine, reference compound]	-2.1		35.6 µM and 27.5 µM	10.5 ± 0.68 µM	15.6 ± 3.57 µM	-1.1 and -2.1	14.2 µM and 12.6 µM and 12.3 µM and 13.8 µM and 11.2 µM	7.68 µM	7.05 ± 1.96 µM	12.2 ± 1.41 µM	18.6 ± 1.21 µM			24.3 µM and 27.3 µM and 6.85 µM	21.7 µM and 27.3 µM and 30.6 µM	27.3 µM and 19.3 µM and 24.3 µM	4		20.1 ± 1.36 µM	R	potency (IC50), Neural stem cell spheroid (24 h) [5]: Inactive
CCOP(=S)(OCC)SC(CCl)N1C(=O)c2ccccc2C1=O (centres unmarked) [Dialifor]	-2.1	-100.017		41.1 µM	28.1 ± 3.23 µM	-2.1	31.7 µM	14.6 µM	25.7 µM	15.7 µM	15.2 µM	9.74 µM	20.1 µM				-1.1	-102.338	2.69 µM		reversibility of AChE inhibition (result in words) (recombinant human AChE [6]): irreversibility
CCOC(=O)c1cn2nc(OP(=S)(OCC)OCC)cc2nc1C [Pyrazophos]	-3	-45.459		49.8 µM	85.3 ± 5.56 µM	-2.1	35.6 µM and 71 µM and 79.6 µM	46.2 µM	29.7 µM	46.2 µM	16.4 µM	2.46 µM	4.46 µM			55.9 µM and 62.7 µM	-1.1	-98.116	7.89 µM		
CNC(=O)Oc1ccc(N(C)C)c(C)c1 [Aminocarb]	-1.1	-98.887		7.92 ± 0.91 µM	9.57 ± 0.62 µM	-1.1	5.64 µM and 7.1 µM and 6.33 µM	5 ± 0.57 µM	12.3 ± 9.41 µM	6.85 ± 3.73 µM	11.7 ± 2.1 µM	25.7 ± 7.15 µM	29.1 µM				-2.1	-71.886	8.21 ± 0.55 µM		AC50 (recombinant human AChE [6]): 17.7 µM and 22.2 µM and 12.5 µM and 28 µM and 25 µM and 7.03 µM and 11.1 µM and 7.89 µM
O=C(O)/C=C/C(=O)O.O=C1c2ccccc2C(=O)N1CCc1noc(-c2ccc(CN3CCCCCC3)s2)n1 [PharmaGSID_48172]	-2.1	-99.042	23.1 µM	11.1 ± 1.52 µM	21.2 ± 1.44 µM	-1.1	6.51 µM and 8.19 µM	16.3 ± 1.86 µM	17.5 ± 16.2 µM	14.5 ± 1.67 µM	36.3 µM	17.1 ± 3.86 µM	20.5 µM	22.9 µM and 36.3 µM and 32.3 µM	20.4 µM and 36.3 µM and 28.8 µM	32.3 µM and 40.7 µM and 22.9 µM	-2.2	-51.694	24.7 ± 1.61 µM	R	IC50 (recombinant human AChE [8]; IC50 (uM)): 58 µM

Reference: publication PMC8041433 (Environmental Health Perspectives, 2021)
